Measurements: patent US20200109117A1, “Modified Therapeutic Agent Analogs of Mefenamic Acid” (ACCESS Association, priority 2018, published 2020)
Like-named read-outs stand apart in the source and are kept apart here.

How the values were obtained:
[1] = pH 7.1; cited from earlier work
[2] = tested on: pilocarpine-induced seizure rats; assay: BBB permeability by contrast-enhanced MRI (Gd-DTPA) in rat seizure pre-clinical model; assay type: in vivo
Protocol: Structure (I), MFA-NIC, was assessed as a possible therapeutic in a rat seizure pre-clinical model. Assessments were conducted using Contrast-enhanced (CE) magnetic resonance (MR) imaging (MRI) and MR spectroscopy (MRS). The seizure model initially involved injection of pilocarpine (380 mg/kg i.p.) alone (Ikonomidou-Turski et al., 1988), however all rats undergoing this procedure died before MRS data could be obtained. A more recent model by Jeong et al. (2017) was adopted, where a lower dose of pilocarpine (25 mg/kg i.p.) was preceded by lithium chloride (127 mg/kg i.p.) 19 hours before, and scopolamine (2 mg/kg i.p.) 30 min. before, pilocarpine. Injection of pilocarpine induced status epilepticus about 20-30 min post-pilocarpine (Jeong et al., 2017). Pascente et al. (2016) also used lithium chloride 18 hours before pilocarpine. Scopolamine was also used by Behr et al. (2017) 30 m in before pilocarpine. Electroencephalography (EEG) was used in the Behr et al. study to confirm seizures.
A MRI contrast agent, Gd-DTPA (gadolinium diethylene triamine penta acetic acid) was used to establish if there was increased BBB permeability. […] Three brain regions were assessed: hippocampus, thalamus and cerebral cortex. […] This may be due to the variability in the change in MRI signal intensity in the seizure group, and the low number of rats per group. The smaller variability in the saline-treated controls was due to the large […] of n=25 (obtained from a previous study conducted in the Towner group). […] The saline-treated controls were used for all statistical comparisons.

[3] = Solubility in distilled water and normal saline, visual inspection and HPLC; assay type: physicochemical; settings: for Aqueous solubility checked on HPLC: aqueous solution, analogs compared with MFA; for Aqueous solubility on visual inspection: analogs compared with parent MFA
Text: The solubility of each molecular structure was checked in distilled water as well as in normal saline.

[4] = Stability study of MFA analogs in acetonitrile and distilled water, 1 day and 7 days, visual and HPLC; assay type: physicochemical; settings: for Stability in acetonitrile and in distilled water up to 7 days: 4° C. and room temperature (~25° C.); for Stability 1 Day ACN 4° C. / Stability 7 Day ACN 4° C. / Stability 1 Day ACN RT / Stability 7 Day ACN RT: acetonitrile; for Stability 7 Day ACN 4° C. / Stability 7 Day ACN RT / Stability 7 Day DW 4° C. / Stability 7 Day DW RT: 7 days; for Stability 1 Day ACN RT / Stability 7 Day ACN RT / Stability 1 Day DW RT / Stability 7 Day DW RT: room temperature (~25° C.); for Stability 1 Day DW 4° C. / Stability 7 Day DW 4° C. / Stability 1 Day DW RT / Stability 7 Day DW RT: distilled water; for Stability in acetonitrile / Stability in distilled water after 1 day: after 1 day
Text: Therapeutic agents stable after 1 day were subjected to a 7 day stability study.
FIG. 1 provides the HPLC chromatogram of MFA-NIC showing stability of the modified drug kept at room temperature on day seven. FIG. 2 provides the HPLC chromatogram of MFA-MeNIC showing stability of the modified drug kept at room temperature on day seven.

[5] = tested on: pilocarpine-induced seizure rats; assay: Brain metabolite levels by MR spectroscopy (ratios to Cho) in rat seizure pre-clinical model; assay type: in vivo
Protocol: Assessments were conducted using Contrast-enhanced (CE) magnetic resonance (MR) imaging (MRI) and MR spectroscopy (MRS). […] A more recent model by Jeong et al. (2017) was adopted, where a lower dose of pilocarpine (25 mg/kg i.p.) was preceded by lithium chloride (127 mg/kg i.p.) 19 hours before, and scopolamine (2 mg/kg i.p.) 30 min. before, pilocarpine. Injection of pilocarpine induced status epilepticus about 20-30 min post-pilocarpine (Jeong et al., 2017).
MRS was used to assess levels of brain metabolites, including N-acetyl aspartate (NAA), total creatine (Cr, total choline (Cho), taurine (Tau), glutamate (Glu) and myo-inositol (Myo-Ins). Cho was used as a normalization reference for all other metabolites. For the control group a total of 10 rats were assessed. For all other treatment groups n=5.

[6] = tested on: pilocarpine-induced seizure rats; assay: EEG of seizure episodes in rat seizure model; assay type: in vivo; settings: preliminary data
[7] = cerebral cortex, 50 mg/kg via gavage
[8] = cerebral cortex, 200 mg/kg via gavage
[9] = distilled water, water, solvent DW (distilled water), read-out: Solubility after molecular weight correction factor
[10] = distilled water, water, solvent DW (distilled water), read-out: Solubility in NS and DW
[11] = normal saline, saline or isotonic, solvent NS (normal saline), read-out: Solubility after molecular weight correction factor
[12] = normal saline, saline or isotonic, solvent NS (normal saline), read-out: Solubility in NS and DW
[13] = 200 mg/kg dose, found most effective
[14] = central brain region (primarily hippocampus), 10 mg/kg via gavage

SMILES	Stability in acetonitrile [4]	BBB permeability vs saline-treated controls [2, 7]	BBB permeability vs saline-treated controls [2, 8]	Aqueous solubility checked on HPLC [3]	Area (HPLC) ([3]; solvent DW (distilled water))	Area (HPLC) ([3]; solvent NS (normal saline))	Aqueous solubility on visual inspection ([3]; water)	Stability in acetonitrile and in distilled water up to 7 days [4]	Stability 1 Day ACN 4° C. [4]	Stability 7 Day ACN 4° C. [4]	Stability 1 Day ACN RT [4]	Stability 7 Day ACN RT [4]	Stability 1 Day DW 4° C. [4]	Stability 7 Day DW 4° C. [4]	Stability 1 Day DW RT [4]	Stability 7 Day DW RT [4]	solubility [3, 9]	solubility [3, 10]	solubility [3, 11]	solubility [3, 12]	other results
Cc1cccc(Nc2ccccc2C(=O)O)c1C [MFA, N-(2,3-Dimethylphenyl)anthranilic acid, reference compound]		significant increase	significant increase	No peak	No Peak	No Peak	insoluble														Water solubility [1]: 0.004%; BBB permeability vs saline-treated controls ([2]; hippocampus, 50 mg/kg via gavage): significant increase; BBB permeability vs saline-treated controls ([2]; thalamus, 50 mg/kg via gavage): significant increase; BBB permeability vs saline-treated controls ([2]; thalamus, 200 mg/kg via gavage): significant increase
Cc1cccc(Nc2ccccc2C(=O)OC[n+]2cccc(C(=O)N(C)C)c2)c1C [MFA-2MeNIC, MFA- N,N-Dimethylnicotinamide N-Methylnicotinamide]				much higher	9876828	18274457	significantly higher	stable	Stable	Stable	Stable	Stable	Stable	Stable	Stable	Stable	180 µg/mL	390 µg/mL	330 µg/mL	720 µg/mL	
CNC(=O)c1ccc[n+](COC(=O)c2ccccc2Nc2cccc(C)c2C)c1 [MFA-MeNIC, MFA- N-Methylnicotinamide]				much higher	10643970	13844823	significantly higher	stable	Stable	Stable	Stable	Stable	Stable	Stable	Stable	Stable	200 µg/mL	460 µg/mL	270 µg/mL	600 µg/mL	
Cc1cccc(Nc2ccccc2C(=O)OCOC(=O)c2ccc[n+](C)c2)c1C [MFA-MeNICA, MFA-N-methylnicotinic acid]	stable								Stable		Stable										Stability in distilled water after 1 day [4]: unstable
Cc1cccc(Nc2ccccc2C(=O)OC[n+]2cccc(C(N)=O)c2)c1C [MFA-NIC, MFA-Nicotinamide]		significant increase	not significantly different	much higher	6867539	2350506	significantly higher	stable	Stable	Stable	Stable	Stable	Stable	Stable	Stable	Stable	130 µg/mL	280 µg/mL	40 µg/mL	100 µg/mL	Brain metabolite levels, overall effect [5, 13]: effective in restoring brain metabolite levels back to normal; Myo-Ins/Cho ratio vs control (non-treated, non-seizure) group [5, 14]: significant decrease; NAA/Cho ratio vs control (non-treated, non-seizure) group [5, 14]: significant decrease; BBB permeability, overall effect [2, 13]: effective in preventing an increase in BBB permeability; BBB permeability vs saline-treated controls ([2]; cerebral cortex, 10 mg/kg via gavage): not significantly different; BBB permeability vs saline-treated controls ([2]; hippocampus, all doses (10, 50 or 200 mg/kg via gavage)): None of the MFA-NIC (shown in FIGS. 4-11 as pro-MFA or pMFA)-treated rats were found to be significantly different; BBB permeability vs saline-treated controls ([2]; thalamus, all doses (10, 50 or 200 mg/kg via gavage)): None of the MFA-NIC (pro-MFA or pMFA)-treated rats were found to be significantly different; Level of seizure episodes (EEG) [6]: does reduce the level of seizure episodes
Cc1cccc(Nc2ccccc2C(=O)OCOC(=O)c2ccc[n+](COC(=O)NC(C)C)c2)c1C [MFA-PCA, MFA-Pyridinium, 3-carboxy-1-[N-(1-methylethyl)carbamic acid]]	not found to be stable																				Stability in distilled water after 1 day [4]: not found to be stable
